# In ChEMBL document CHEMBL5604062, “ASAP - ZIKV NS2B-NS3 protease fluorescence dose response” (2024):
# “And” between values parts separate entries of the source, which are not always exact repeats. Identical values can stand only once.
# Target: Nonstructural protein 3 (Zika virus, UniProt A0A024AXB9)
# Test: Functional biochemical assay to identify treatments for viral infectious disease that targets Zika NS2B-NS3 protease. Utilizing a direct enzyme activity measurement method, reading the fluorescence intensity is used to characterize the relative potency of inhibitors as IC50.
# Design: species or system PRVABC59
# Chain of Nonstructural protein 3 (A0A024AXB9 whole entry): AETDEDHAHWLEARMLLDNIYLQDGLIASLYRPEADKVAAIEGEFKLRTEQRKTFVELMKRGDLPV
row,Structure (SMILES),IC50
1,c1ccc(COC2CCN(Cc3c[nH]c4ccccc34)CC2)cc1,> 99.5 µM
2,COc1ccc(NS(=O)(=O)c2ccc(Cl)cc2C(=O)O)cc1OC1CCCC1,> 99.5 µM
3,CC(C)CNC(=O)[C@H](Nc1cccc(-c2nnn[nH]2)c1)c1cc(Cl)cc(C2CC2)c1,> 99.5 µM
4,CN(C)c1cc(-c2ccc(S(=O)(=O)Nc3ccc(Cl)cc3C(=O)O)cc2)ccn1,> 99.5 µM
5,N#C[C@H](Nc1ccc2c(c1)CNC2)c1cc(Cl)cc(C2CC2)c1,0.174 µM
6,CCc1sc(C(=O)Nc2cccc(-c3nnn[nH]3)c2)cc1C,> 99.5 µM
7,c1cncc(N2CCCN(Cc3c[nH]c4ccccc34)CC2)c1,> 99.5 µM
8,O=C(Nc1ccc2c(c1)CNC2)c1cccc2[nH]c(=O)[nH]c12,0.068 µM and 0.064 µM
9,Cc1c(C(=O)Nc2cc(C(=O)N3CC[C@H]3CO)ccn2)cc(C2CC2)n1C,> 25 µM
10,CNC(=O)[C@H](Nc1cccc([C@H]2CCOC2)c1)c1cc(C2CC2)n(C)n1,> 25 µM
11,O=C(Nc1ccc(C2CCNCC2)cc1)c1cc(Cl)cc2[nH]ncc12,9.21 µM
12,CCn1c(=O)c(N2CCC[C@@H]2Cc2cccs2)nc2ccccc21,> 99.5 µM
13,CC(C)n1cc2c(C(=O)Nc3ccc4c(c3)CNC4)cc(Cl)cc2n1,0.046 µM and 0.034 µM
14,CC(C)(CO)NC(=O)c1cc(Cl)cc(NC(=O)c2cc(Cl)ccc2O)c1,> 99.5 µM
15,CN1CCc2ccc(C(=O)N3CCNc4ccccc4C3)cc2C1,> 99.5 µM
16,O=C(Nc1ccc2c(c1)CNC2)c1cc(Cl)cc2nn(-c3ccccc3)nc12,0.372 µM and 3.47 µM
17,O=C1Cc2c(cccc2C(=O)Nc2ccc3c(n2)CNC3)N1,1.42 µM
18,O=C(Nc1ccc2c(c1)CNC2)c1cccc2sccc12,0.456 µM
19,CC(C)c1cc(Br)cc(C(=O)Nc2ccc3c(c2)CNC3)c1,0.393 µM

row,Structure (SMILES),IC50
1,Cc1c(C(=O)Nc2ccc3c(c2)CNC3)cc(C2CC2)n1C,15.8 µM
2,O=C(NC[C@H]1CCCO1)[C@H](Nc1ccc2c(c1)CNC2)c1cc(Cl)cc2[nH]ncc12,0.111 µM
3,O=C1CN(C(=O)Nc2ccc3c(c2)CNC3)[C@H]2CCCC[C@H]2N1,> 25 µM
4,O=C(Nc1ccc2c(c1)CNC2)c1cncc2[nH]ncc12,0.443 µM
5,O=Cc1ccc(N2CCC(C(=O)N3CCC(CCN4CCCC4)CC3)CC2)cc1,> 99.9 µM
6,N#Cc1csc(CSc2nnc(C(F)(F)F)s2)n1,> 99.5 µM
7,O=C(Nc1cc(Cl)cc(-c2ccc(C3(C(=O)O)CCNCC3)cc2)c1)OCc1ccccc1,> 99.5 µM
8,CN1CCN(C2CN(C(=O)c3cc(Br)cc(C=O)c3)C2)CC1,> 99.5 µM
9,O=C1Cc2c(cccc2C(=O)N[C@H]2CCC23CCOCC3)N1,> 25 µM
10,Cc1nc(CCCNCc2n[nH]c3ccccc23)cs1,> 99.5 µM
11,O=C1Cc2c(cccc2C(=O)Nc2ccc3c(c2)C(=O)OC3)N1,> 25 µM
12,NCc1ccc2c(c1)CCC[C@H]2NCc1cc(Cl)cc2c1OCC2,61.4 µM
13,O=C(Nc1cc(-c2cccnc2)ccn1)c1cc2n(n1)CCO2,> 25 µM
14,CC(C)c1nc2cc(Cl)ccc2n1Cc1ccc(-c2nn[nH]n2)cc1,> 99.5 µM
15,O=C(Nc1ccc2c(c1)CNC2)c1ccc2c(c1)CCC2,11.7 µM
16,c1csc(CSc2nnc(Cn3cncn3)o2)c1,> 99.5 µM
17,O=C1CCc2cc(C(=O)Nc3ccc4c(c3)CNC4)cc(F)c2N1,1.49 µM
18,C[C@H](C1CC1)n1ncc2c(C(=O)Nc3ccc4c(c3)CNC4)cc(C3CC3)nc21,8.05 µM
19,O=C(N[C@@H]1CCc2cn[nH]c2C1)c1cccc2c1NC(=O)[C@]1(CCCN1)C2,> 99.5 µM

row,Structure (SMILES),IC50
1,O=C(NCC1CCNCC1)c1cc(Cl)cc2[nH]ncc12,74.6 µM
2,Cc1c(C(=O)Nc2cccc(-c3cccnc3)c2)cc(C2CC2)n1C,> 25 µM
3,O=C(Nc1ccc2c(c1)CNC2)c1cc(Br)cc2cccnc12,13.4 µM
4,O=C(Nc1ccc2c(c1)CNC2)c1ccc(F)c2[nH]ncc12,2.65 µM
5,COc1ccc(S(=O)(=O)Nc2ccc(Cl)cc2C(=O)O)cc1,> 99.5 µM
6,COCCCNC(=O)[C@H](Nc1ccc2c(c1)CNC2)c1cc(Cl)cc(C2CC2)c1,0.088 µM and 0.071 µM
7,O=C(O)c1sc2cccnc2c1Br,> 99.5 µM
8,FC(F)(F)Oc1cc(Cl)cc2c(Cc3ccc(-c4nnn[nH]4)cc3)c[nH]c12,34.1 µM
9,OC[C@H](Cc1cccnc1)NCc1c[nH]c2ccccc12,> 99.5 µM
10,COc1cc(Br)cc(C(=O)Nc2ccc3c(c2)CNC3)c1,0.332 µM
11,Cc1c(C(=O)Nc2cc(CN(C)C)ccn2)cc(C2CC2)n1C,> 25 µM
12,Cc1cc(C)c(C(=O)N2C[C@H]3CN(C)CC[C@@]3(CO)C2)cc1C=O,> 99.5 µM
13,N#Cc1c(C(F)F)cccc1N1CCC(n2ncc(N)c2C(F)(F)F)CC1,> 99.5 µM
14,O=C(Nc1ccc2c(c1)CNC2)c1cccc2ncccc12,3.4 µM
15,CCn1c(=O)c(N2CC[C@@H](CO)C2)nc2ccc(C(=O)O)cc21,> 99.5 µM
16,O=C(O)C1CCC2(CC1)CC(Cc1c[nH]c3ccc(Cl)cc13)C2 (stereo not drawn),> 99.5 µM
17,C[C@H]1CCCCN1C(=O)Cn1ccnc(N2CC[C@@H](CO)C2)c1=O,> 99.5 µM
18,CCCN1C(=O)[C@](Nc2ccc3c(c2)CNC3)(C(N)=O)c2cc(Cl)ccc21,21 µM

# Results, then the molecule that gave them:
row,IC50,Structure (SMILES)
1,79.2 µM,NCc1cccc(NC(=O)[C@@H](NC(=O)OCc2ccccc2)c2ccc(C(F)(F)F)cc2)c1
2,17.8 µM,O=C(Nc1cc(Cl)cc(-c2ccc3[nH]nc(C(=O)O)c3c2)c1)OCc1ccccc1
3,> 99.5 µM,NCc1cccc(NC(=O)[C@@H](NC(=O)OCc2ccccc2)c2ccc(F)cc2F)c1
4,60.9 µM,CC(C)NC(=O)[C@H](Nc1cccc(-c2nn[nH]n2)c1)c1cc(Cl)cc(NC(=O)OCc2ccccc2)c1
5,25.8 µM,NCc1cc(Cl)cc(C(=O)Nc2cccc(C3CCNCC3)c2)c1
6,> 25 µM,NCc1ccccc1C(=O)Nc1ccc2c(c1)C(=O)OC2
7,5.57 µM,C[C@@]1(c2cccc(CN)c2)C[C@H]1c1cc(Cl)cc(NC(=O)OCc2ccccc2)c1
8,> 99.5 µM,NCc1cccc(CS(=O)(=O)c2cc(Cl)cc(NC(=O)OCc3ccccc3)c2)c1
9,> 25 µM,CC(=O)Nc1cccc(C(=O)Nc2ccc3c(c2)CNC3)n1
10,2.72 µM and 2.68 µM and 3.22 µM and 3.04 µM,NCc1cccc(NC(=O)C[C@H](NC(=O)OCc2ccccc2)c2ccc(OCc3ccccc3)c(Br)c2)c1
11,6.42 µM,NCc1cccc(NC(=O)[C@@H](NC(=O)OCc2ccccc2)c2ccc(-c3cccc4nonc34)cc2)c1
12,> 99.5 µM,NCc1nc(-c2ccc(NC(=O)c3cc(Cl)cc(NC(=O)OCc4ccccc4)c3)cc2)n[nH]1
13,> 99.5 µM,COc1ccc(CN(C)C)cc1NC(=O)[C@@H](NC(=O)OCc1ccccc1)c1ccc(OCc2ccccc2)cc1
14,> 99.5 µM,NCc1cccc(NC(=O)[C@@H]2CCC[C@@H](NC(=O)OCc3ccccc3)C2)c1
15,> 99.5 µM,NCc1cccc(NC(=O)[C@H](NC(=O)[C@H]2CCOC2)c2ccc(OCc3ccccc3)cc2)c1
16,3.42 µM,C[C@@H](N)c1cc(Cl)cc(C(=O)Nc2cccc(CN)c2)c1
17,> 99.5 µM,O=C(Nc1cc(Cl)cc(C(=O)Nc2ccnc(C(=O)O)c2)c1)OCc1ccccc1
18,36.2 µM,CS(=O)(=O)NC(=O)c1cc(Cl)ccc1NS(=O)(=O)c1ccc(Oc2ccccc2Cl)cc1
19,35.1 µM,O=C(O)c1cc(Cl)ccc1NS(=O)(=O)c1ccc(Oc2ccccc2Cl)cc1
20,0.243 µM,O=C(Nc1ccc2c(c1)CNC2)c1cccc2c1[C@]1(CCN(C(=O)OCc3ccccc3)C1)C(=O)N2
21,> 99.5 µM,Cn1nc(C(=O)Nc2cccc(CN)c2)cc1C1CC1
22,> 99.5 µM,CN1CCn2nc(NC(=O)[C@@H](NC(=O)OCc3ccccc3)c3ccc(OCc4ccccc4)cc3)cc2C1
23,> 99.5 µM,CC(C)(C)OC(=O)NCc1cccc(NC(=O)[C@@H](NC(=O)OCc2ccccc2)c2ccc(O)cc2)c1
24,0.795 µM,CNC(=O)[C@H](Nc1cc(CN)cc(C(=O)O)c1)c1cc(Cl)cc(C2CC2)c1

row,IC50,Structure (SMILES)
1,97.3 µM,NCC1CCN(C(=O)c2cc(Cl)cc(NC(=O)OCc3ccccc3)c2)CC1
2,76.3 µM,O=C(NCC1CC1)c1cc(Cl)ccc1NS(=O)(=O)c1ccc(Oc2ccccc2Cl)cc1
3,> 99.5 µM,NC(=O)c1ccc(Cn2nnc(C=Cc3ccccc3)n2)cc1
4,> 99.5 µM,NC1(c2cccc(NC(=O)[C@@H](NC(=O)OCc3ccccc3)c3ccc(OCc4ccccc4)cc3)c2)CCC1
5,> 99.5 µM,NCc1cccc(NC(=O)[C@@H](NC(=O)OCc2ccccc2)c2ccc(Cl)cc2)c1
6,> 99.5 µM,O=C(Nc1cc(Cl)cc(/C=C/c2cccc(-n3nn[nH]c3=O)c2)c1)OCc1ccccc1
7,93.9 µM,COc1ccc([C@@H](CC(=O)Nc2cccc(CN)c2)NC(=O)OCc2ccccc2)cc1Br
8,64.9 µM,O=C(Nc1cc(Cl)cc(C(=O)Nc2cccc(Cc3nn[nH]n3)c2)c1)OCc1ccccc1
9,> 99.5 µM,COc1cncc(CNC(=O)[C@@H](NC(=O)OCc2ccccc2)c2ccc(OCc3ccccc3)cc2)c1
10,> 99.5 µM,CN(C)[C@H](C(=O)Nc1cccc(CN)c1)c1cc(Cl)cc(Cl)c1
11,> 99.5 µM,O=C(N[C@H](C(=O)NCc1cccc(CO)n1)c1ccc(OCc2ccccc2)cc1)OCc1ccccc1
12,54.7 µM,NCc1cccc(NC(=O)[C@@H]2[C@@H]3CCCCC[C@@H]3[C@@H]2NC(=O)OCc2ccccc2)c1
13,> 99.5 µM,Cc1nn(CCO)c(C(F)F)c1C(=O)Nc1cccc(CN)c1
14,> 99.5 µM,NCc1ccc(C[C@H](NC(=O)c2ccccc2)C(=O)Nc2cccc(CN)c2)cc1
15,8.05 µM,Cn1ccc(-c2cc(CN)cc([C@@H]3C[C@H]3c3cc(Cl)cc(NC(=O)OCc4ccccc4)c3)c2)n1
16,> 99.5 µM,NCc1ccccc1Oc1ccc(S(=O)(=O)Nc2ccc(Cl)cc2C(=O)O)cc1
17,> 99.5 µM,CN(C)Cc1cc(NC(=O)[C@H](NC(=O)OCc2ccccc2)c2ccc(OCc3ccccc3)cc2)sn1
18,> 25 µM,Cc1c(C(=O)Nc2cc(CCCN)ccn2)cc(-c2ccccc2)n1C
19,> 99.5 µM,O=C(O)CCCc1ccc(NC(=O)c2cc(Cl)cc(NC(=O)OCc3ccccc3)c2)cc1
20,> 99.5 µM,O=C(N[C@@H](C(=O)NCc1cccc(CN2CCCCC2)c1)c1ccc(OCc2ccccc2)cc1)OCc1ccccc1
21,31.1 µM,CC(C)CNC(=O)[C@H](Nc1cccc(-c2nn[nH]n2)c1)c1cc(Cl)cc(NC(=O)OCc2ccccc2)c1
22,7.17 µM,NCc1cccc(NC(=O)c2cc(Cl)cc([C@H]3CCCCN3)c2)c1
23,> 99.5 µM,CS(=O)(=O)NCc1ccc(CNC(=O)[C@@H](NC(=O)OCc2ccccc2)c2ccc(OCc3ccccc3)cc2)cc1
